Laboratory results from patent publication US12201626B2, “Bifunctional compositions for the treatment of cancer” (ARMACEUTICA, INC., priority 2018, dated 2025).

Tests used:
CEM cell line = assay: Differential Nuclear Staining (DNS) cytotoxicity assay; format: cell-based, human
Description: In this study, 19 human cell lines were utilized: seven breast human cancer; MDA-MB-468, MCF-7, T47D, HCC1419, HCC70, MDA-MB-231 (triple negative) and its lung metastatic (LM) derivative MDA-MB-231 LM2; four human leukemia/lymphoma cells, HL-60, Ramos, Jurkat and CEM, three human ovarian cancer, Ovcar 8, Ovcar 5 and Ovcar 3, one lung cancer, one melanoma and one pancreatic cell line, A549, A375, Panc-1 respectively. Furthermore, for selectivity/comparative purposes, the cell lines from the non-cancerous origin, MCF-10A, HS-27 were also included. […] The adherent cells, growing in the logarithmic growth phase at a 60-75% confluence, were detached by utilizing a HyQtase enzyme (Thermo Fisher Scientific Inc.), counted and seeded in 96-well plates at 10,000 cells density in 100 μL of culture medium per well. […]
To analyze the potential cytotoxic activity of PND, the Differential Nuclear Staining (DNS) assay, which was validated for high-throughput screening (HTS) using live-cell bio-imaging was utilized. […] Montages of 2 by 2 images were captured directly from each individual well of the culture plates by using a multi-well plate reader IN Cell 2000 analyzer, an HTS and high-content analysis (HCA) system (GE Healthcare Life Sciences, Pittsburgh, PA). […] Each experimental data point, as well as controls, were assessed in triplicates. […]

[1] = test system: malignancy that was metastatic or unresectable; assay: Open-label study of oral PND in terminally-ill canine cancer patients; format: in vivo
Description: Due to ethical concerns of treating terminally-ill dogs, there was no placebo group.
The secondary outcomes were: anti-tumor activity, malignancy-associated symptom relief, and the safety and tolerability of PND.
Case 1, Mast cell carcinoma: Dog (Golden Retriever), female, 6 years old, 28.7 kg. Cancer was confirmed by histopathology report. In mid-May 2019 the administration of oral PND to the dog began after which patient received no other cancer medication. Veterinarian expected survival length of between 4 and 6 months at the time of study entry. Patient received 23 mg/kg/day PND (325 mg in the morning and 325 mg in the evening).
Case 2, Osteosarcoma: Dog (Saint Bernard), male, 5 years old, 49.7 kg. On 17 May 2019 the administration of oral PND began after which the patient received no other cancer medication. The veterinarian expected a survival length of between 4 and 6 months at the time of study entry. Patient received 20 mg/kg/day PND (325 mg in the morning and 650 mg in the evening).
Case 3, spindle cell sarcoma: Dog (Border Collie), male, 9 years old, 28.5 kg. In 2014 the dog was diagnosed with a low-grade spindle cell sarcoma, and was due to be euthanized on 11 Feb. 2019, with a life expectancy of 1-2 weeks. Instead, the veterinarian began the administration of oral PND on 11 Feb. 2019 after which patient received no other cancer medication. Patient received 15 mg/kg/day PND (215 mg in the morning and 215 mg in the evening).
Case 4, non-Hodgkin lymphoma: Dog (Boxer), female, 27 kg, 11 years old. Cancer was confirmed by biopsy report. In December 2018 the administration of oral PND to the dog began after which patient received no other cancer medication. Patient received 15 mg/kg/day PND (210 mg in the morning and 210 mg in the evening). However, the administration of PND stopped in February 2019 (due to shipping problems from the USA to Canada) and never resumed.
Case 5, mast cell tumor: Dog, male, 27.9 kg. Cancer was confirmed by histopathology report. A tumor was surgically excised from tongue, and there was no clean border. In December 2018 the administration of oral PND began after which the patient received no other cancer medication. Patient received 15 mg/kg/day PND (210 mg in the morning and 210 mg in the evening).

Structure (SMILES): COC1=CC=C2Nc3cc(Cl)ccc3C(N=C3C=C(CN4CCCC4)C(=O)C(CN4CCCC4)=C3)=C2N1 [PND, 4-[(7-chloro-2-methoxy-1,5-dihydrobenzo[b][1,5]naphthyridin-10-yl)imino]-2,6-bis(pyrrolidin-1-ylmethyl)cyclohexa-2,5-dien-1-one]
- selectivity (SCI) (CEM cell line): poor selectivity
- study-drug related adverse events ([1]; Case 1, mast cell carcinoma, 23 mg/kg/day oral): no reports of any study-drug related adverse events
- survival status ([1]; Case 1, as of June 2019, start mid-May 2019): still alive
- possible study-drug related adverse events ([1]; Case 2, osteosarcoma, 20 mg/kg/day oral, resolved with diphenhydramine): drooling, facial swelling, and vomiting
- survival status ([1]; Case 2, at June 2019, start 17 May 2019): still alive
- study-drug related adverse events ([1]; Case 3, spindle cell sarcoma, 15 mg/kg/day oral): no reports of any study-drug related adverse events except initial vomiting
- survival lengthened by ([1]; Case 3, life expectancy 1-2 weeks at entry): 3 months
- reduction of volume of each tumor at follow-up ([1]; Case 3, three tumors): approximately 20%
- survival lengthened by ([1]; Case 4): 2.5 months
- study-drug related adverse events ([1]; Case 4, non-Hodgkin lymphoma, 15 mg/kg/day oral): no reports of any study-drug related adverse events
- tumor shrinkage ([1]; Case 4, neck tumor, by March 2019): 70%
- tumor volume at follow-up ([1]; Case 5, mast cell tumor, 15 mg/kg/day oral, 2 cm×1 cm versus 2 cm×1 cm): remained the same volume
- survival status ([1]; Case 5, as of June 2019, start December 2018): still alive
